In the kinase profiling compilation of Christmann-Franck et al. (2016):

What was measured:
Assay in all cases: radiometric filter-binding kinase assay, Kinase HotSpot
Details in all cases: compound 0.5 µM; ATP 10 µM
CAMK1G (human) = CAMK1G (human) (UniProt Q96NX5)
STK25 (human) = STK25 (human) (UniProt O00506)
EPHA3 (human) = EPHA3 (human) (UniProt P29320)
SRMS (human) = SRMS (human) (UniProt Q9H3Y6)
PRKCI (human) = PRKCI (human) (UniProt P41743)
MAPK1 (human) = MAPK1 (human) (UniProt P28482)
MST1R (human) = MST1R (human) (UniProt Q04912)
MYO3B (human) = MYO3B (human) (UniProt Q8WXR4)
FER (human) = FER (human) (UniProt P16591)
EPHB1 (human) = EPHB1 (human) (UniProt P54762)
GRK6 (human) = GRK6 (human) (UniProt P43250)
ACVR1 (human) = ACVR1 (human) (UniProt Q04771)
EPHA2 (human) = EPHA2 (human) (UniProt P29317)
CAMK2D (human) = CAMK2D (human) (UniProt Q13557)
CSNK2A1 (human) = CSNK2A1 (human) (UniProt P68400)
ULK2 (human) = ULK2 (human) (UniProt Q8IYT8)
EPHA7 (human) = EPHA7 (human) (UniProt Q15375)
IRAK1 (human) = IRAK1 (human) (UniProt P51617)
NEK4 (human) = NEK4 (human) (UniProt P51957)
PRKD2 (human) = PRKD2 (human) (UniProt Q9BZL6)
PTK6 (human) = PTK6 (human) (UniProt Q13882)
MAPK8 (human) = MAPK8 (human) (UniProt P45983)
LTK (human) = LTK (human) (UniProt P29376)
CAMK1 (human) = CAMK1 (human) (UniProt Q14012)
TAOK1 (human) = TAOK1 (human) (UniProt Q7L7X3)
NEK7 (human) = NEK7 (human) (UniProt Q8TDX7)
RPS6KB1 (human) = RPS6KB1 (human) (UniProt P23443)
EPHA1 (human) = EPHA1 (human) (UniProt P21709)
BRSK1 (human) = BRSK1 (human) (UniProt Q8TDC3)
CSNK1G1 (human) = CSNK1G1 (human) (UniProt Q9HCP0)
DDR2 (human) = DDR2 (human) (UniProt Q16832)
DAPK1 (human) = DAPK1 (human) (UniProt P53355)
NEK3 (human) = NEK3 (human) (UniProt P51956)
CHUK (human) = CHUK (human) (UniProt O15111)
MARK2 (human) = MARK2 (human) (UniProt Q7KZI7)
SYK (human) = SYK (human) (UniProt P43405)
HIPK1 (human) = HIPK1 (human) (UniProt Q86Z02)
CDK5 CDK5R1 p25 (human) = CDK5 CDK5R1 p25 (human) (UniProt Q00535+Q15078)
PRKCB1 (human) = PRKCB1 (human) (UniProt P05771)
NEK6 (human) = NEK6 (human) (UniProt Q9HC98)
MAP3K5 (human) = MAP3K5 (human) (UniProt Q99683)
HIPK2 (human) = HIPK2 (human) (UniProt Q9H2X6)

Sequence of HIPK1 (human) (Q86Z02 whole entry, looked up): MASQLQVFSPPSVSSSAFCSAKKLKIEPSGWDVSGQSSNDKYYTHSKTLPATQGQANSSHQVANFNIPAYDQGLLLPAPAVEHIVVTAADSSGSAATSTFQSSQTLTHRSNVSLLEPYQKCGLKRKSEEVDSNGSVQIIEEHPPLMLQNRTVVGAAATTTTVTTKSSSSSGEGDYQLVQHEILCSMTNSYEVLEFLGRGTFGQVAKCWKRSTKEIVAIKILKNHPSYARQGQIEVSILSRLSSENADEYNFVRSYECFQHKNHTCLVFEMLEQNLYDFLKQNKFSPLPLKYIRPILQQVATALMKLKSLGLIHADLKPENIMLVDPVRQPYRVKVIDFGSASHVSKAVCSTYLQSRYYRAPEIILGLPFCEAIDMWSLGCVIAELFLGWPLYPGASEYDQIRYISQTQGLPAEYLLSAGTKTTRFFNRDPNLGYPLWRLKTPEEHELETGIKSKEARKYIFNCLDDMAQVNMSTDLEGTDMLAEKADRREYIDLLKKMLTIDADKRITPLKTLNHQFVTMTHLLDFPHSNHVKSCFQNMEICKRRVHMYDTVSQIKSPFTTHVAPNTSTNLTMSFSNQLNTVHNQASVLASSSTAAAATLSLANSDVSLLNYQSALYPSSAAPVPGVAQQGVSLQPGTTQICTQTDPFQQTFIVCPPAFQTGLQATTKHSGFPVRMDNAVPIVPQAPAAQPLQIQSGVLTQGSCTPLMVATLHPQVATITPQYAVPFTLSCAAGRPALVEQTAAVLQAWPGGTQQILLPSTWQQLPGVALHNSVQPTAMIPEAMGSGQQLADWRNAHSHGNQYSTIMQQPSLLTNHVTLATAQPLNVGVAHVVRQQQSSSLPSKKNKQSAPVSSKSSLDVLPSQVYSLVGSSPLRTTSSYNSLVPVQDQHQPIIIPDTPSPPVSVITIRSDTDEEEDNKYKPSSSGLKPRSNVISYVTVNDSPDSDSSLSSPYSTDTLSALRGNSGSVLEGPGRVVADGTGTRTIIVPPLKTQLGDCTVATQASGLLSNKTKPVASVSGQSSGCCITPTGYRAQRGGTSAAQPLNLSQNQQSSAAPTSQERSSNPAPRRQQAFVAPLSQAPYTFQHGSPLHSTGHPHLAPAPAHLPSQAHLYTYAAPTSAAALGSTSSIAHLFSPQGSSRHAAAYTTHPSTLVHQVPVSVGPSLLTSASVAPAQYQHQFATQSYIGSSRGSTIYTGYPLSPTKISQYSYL
Sequence of EPHA1 (human) (P21709 whole entry, looked up): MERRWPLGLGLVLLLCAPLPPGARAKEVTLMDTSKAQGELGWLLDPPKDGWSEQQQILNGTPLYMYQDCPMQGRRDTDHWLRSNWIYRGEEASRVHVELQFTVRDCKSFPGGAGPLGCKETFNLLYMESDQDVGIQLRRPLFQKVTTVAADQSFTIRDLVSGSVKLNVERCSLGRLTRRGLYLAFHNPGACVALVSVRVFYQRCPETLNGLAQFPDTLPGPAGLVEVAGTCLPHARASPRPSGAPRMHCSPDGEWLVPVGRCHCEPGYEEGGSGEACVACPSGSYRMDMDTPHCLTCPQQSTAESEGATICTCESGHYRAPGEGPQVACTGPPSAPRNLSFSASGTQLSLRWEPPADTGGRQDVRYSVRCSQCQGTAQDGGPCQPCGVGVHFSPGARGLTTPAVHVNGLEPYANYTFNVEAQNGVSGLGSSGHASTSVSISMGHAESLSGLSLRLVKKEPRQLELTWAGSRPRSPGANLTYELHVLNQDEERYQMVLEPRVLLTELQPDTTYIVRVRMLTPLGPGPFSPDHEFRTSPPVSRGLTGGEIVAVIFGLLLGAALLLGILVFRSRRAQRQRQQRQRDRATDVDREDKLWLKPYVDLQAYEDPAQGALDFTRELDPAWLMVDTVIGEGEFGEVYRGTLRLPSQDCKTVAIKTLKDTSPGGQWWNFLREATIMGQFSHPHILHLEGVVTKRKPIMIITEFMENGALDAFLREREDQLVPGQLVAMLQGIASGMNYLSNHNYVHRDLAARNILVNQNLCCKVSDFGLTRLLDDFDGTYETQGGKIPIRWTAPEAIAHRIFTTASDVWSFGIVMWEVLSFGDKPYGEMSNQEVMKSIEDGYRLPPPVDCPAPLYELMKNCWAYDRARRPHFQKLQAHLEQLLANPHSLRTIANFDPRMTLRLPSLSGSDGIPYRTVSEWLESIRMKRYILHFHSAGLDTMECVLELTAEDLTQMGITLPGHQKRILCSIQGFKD
Sequence of EPHA7 (human) (Q15375 whole entry, looked up): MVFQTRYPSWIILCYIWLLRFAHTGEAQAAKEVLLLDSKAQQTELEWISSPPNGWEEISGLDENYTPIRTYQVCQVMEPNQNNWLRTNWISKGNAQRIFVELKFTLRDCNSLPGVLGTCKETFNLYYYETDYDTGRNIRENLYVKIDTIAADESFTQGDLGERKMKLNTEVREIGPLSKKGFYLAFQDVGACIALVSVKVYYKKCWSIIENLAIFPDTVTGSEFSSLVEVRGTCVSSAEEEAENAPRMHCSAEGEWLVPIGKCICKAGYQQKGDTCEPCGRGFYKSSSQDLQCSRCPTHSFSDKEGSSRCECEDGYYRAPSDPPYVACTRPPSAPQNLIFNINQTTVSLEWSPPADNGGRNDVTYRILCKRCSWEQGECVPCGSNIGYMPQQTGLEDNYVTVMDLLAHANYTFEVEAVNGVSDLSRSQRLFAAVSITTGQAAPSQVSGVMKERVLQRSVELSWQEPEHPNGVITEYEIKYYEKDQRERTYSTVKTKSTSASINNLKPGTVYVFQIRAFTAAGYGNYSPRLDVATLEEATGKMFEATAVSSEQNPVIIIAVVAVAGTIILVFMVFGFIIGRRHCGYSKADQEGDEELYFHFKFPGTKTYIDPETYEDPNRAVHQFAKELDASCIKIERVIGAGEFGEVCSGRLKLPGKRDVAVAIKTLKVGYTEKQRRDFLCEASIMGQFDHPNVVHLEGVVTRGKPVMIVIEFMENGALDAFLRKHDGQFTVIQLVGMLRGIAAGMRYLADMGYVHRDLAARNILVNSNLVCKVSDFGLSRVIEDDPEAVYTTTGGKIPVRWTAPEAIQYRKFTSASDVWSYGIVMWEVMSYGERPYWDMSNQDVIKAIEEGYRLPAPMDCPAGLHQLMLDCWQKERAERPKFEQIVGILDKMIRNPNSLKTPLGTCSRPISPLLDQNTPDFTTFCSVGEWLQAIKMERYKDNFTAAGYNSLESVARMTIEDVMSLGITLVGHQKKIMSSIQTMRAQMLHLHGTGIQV
Sequence of CDK5 CDK5R1 p25 (human) (Q00535 whole entry, looked up): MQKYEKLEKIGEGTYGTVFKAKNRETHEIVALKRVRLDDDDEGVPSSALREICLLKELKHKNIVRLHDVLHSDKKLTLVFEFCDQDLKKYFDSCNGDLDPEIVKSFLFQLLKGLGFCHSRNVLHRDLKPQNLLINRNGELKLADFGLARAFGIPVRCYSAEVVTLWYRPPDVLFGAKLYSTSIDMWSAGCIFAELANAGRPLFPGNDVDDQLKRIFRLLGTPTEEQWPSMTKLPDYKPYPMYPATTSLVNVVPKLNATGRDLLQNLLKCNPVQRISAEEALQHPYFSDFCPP
Sequence of CDK5 CDK5R1 p25 (human) (Q15078 whole entry, looked up): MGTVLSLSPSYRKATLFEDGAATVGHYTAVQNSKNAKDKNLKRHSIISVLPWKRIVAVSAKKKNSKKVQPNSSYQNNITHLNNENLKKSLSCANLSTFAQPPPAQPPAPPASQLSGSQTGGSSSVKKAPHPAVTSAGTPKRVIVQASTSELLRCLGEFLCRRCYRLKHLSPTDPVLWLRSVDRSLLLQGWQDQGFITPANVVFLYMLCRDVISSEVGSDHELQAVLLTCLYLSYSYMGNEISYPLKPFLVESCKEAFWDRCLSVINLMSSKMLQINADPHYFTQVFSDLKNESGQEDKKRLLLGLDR
Sequence of STK25 (human) (O00506 whole entry, looked up): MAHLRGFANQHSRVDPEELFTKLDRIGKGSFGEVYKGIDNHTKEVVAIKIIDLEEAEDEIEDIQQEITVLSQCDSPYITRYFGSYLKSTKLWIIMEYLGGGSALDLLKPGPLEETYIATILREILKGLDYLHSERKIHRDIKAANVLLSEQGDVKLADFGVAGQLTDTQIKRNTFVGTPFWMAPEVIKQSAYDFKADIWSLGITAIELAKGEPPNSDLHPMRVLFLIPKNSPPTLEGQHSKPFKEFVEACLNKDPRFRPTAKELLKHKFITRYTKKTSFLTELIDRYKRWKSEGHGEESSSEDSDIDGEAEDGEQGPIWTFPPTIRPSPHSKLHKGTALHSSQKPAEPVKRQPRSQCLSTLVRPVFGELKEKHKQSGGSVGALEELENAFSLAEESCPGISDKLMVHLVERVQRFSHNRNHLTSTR
Sequence of PTK6 (human) (Q13882 whole entry, looked up): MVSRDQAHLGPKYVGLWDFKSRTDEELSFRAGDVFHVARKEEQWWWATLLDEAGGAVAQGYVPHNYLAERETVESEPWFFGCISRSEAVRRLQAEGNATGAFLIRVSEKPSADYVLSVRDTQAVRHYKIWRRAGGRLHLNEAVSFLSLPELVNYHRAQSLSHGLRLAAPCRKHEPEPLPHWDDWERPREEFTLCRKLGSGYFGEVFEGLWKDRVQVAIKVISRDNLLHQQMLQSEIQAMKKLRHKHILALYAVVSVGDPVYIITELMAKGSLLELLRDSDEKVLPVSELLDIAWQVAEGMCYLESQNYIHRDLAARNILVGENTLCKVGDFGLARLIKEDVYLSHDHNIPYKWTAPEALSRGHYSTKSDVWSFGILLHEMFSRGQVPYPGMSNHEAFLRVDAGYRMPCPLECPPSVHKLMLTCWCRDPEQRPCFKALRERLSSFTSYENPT
Sequence of MAPK1 (human) (P28482 whole entry, looked up): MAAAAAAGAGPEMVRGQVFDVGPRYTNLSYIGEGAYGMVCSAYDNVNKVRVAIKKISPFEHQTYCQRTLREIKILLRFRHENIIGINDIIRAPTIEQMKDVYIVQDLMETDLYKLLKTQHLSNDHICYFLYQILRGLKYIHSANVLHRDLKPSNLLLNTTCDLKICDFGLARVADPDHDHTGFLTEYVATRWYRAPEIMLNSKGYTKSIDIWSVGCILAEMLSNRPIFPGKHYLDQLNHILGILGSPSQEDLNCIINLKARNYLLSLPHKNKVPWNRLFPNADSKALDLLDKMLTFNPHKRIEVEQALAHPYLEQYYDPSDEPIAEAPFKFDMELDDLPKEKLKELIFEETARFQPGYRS

## CCOC(=O)c1c(C)[nH]c(/C=C2\C(=O)Nc3ccccc32)c1C
CAMK1G (human)
  residual activity: 98.2%
STK25 (human)
  residual activity: 98.5%
EPHA3 (human)
  residual activity: 96.3%
SRMS (human)
  residual activity: 104%
PRKCI (human)
  residual activity: 92.9%
MAPK1 (human)
  residual activity: 96.4%
MST1R (human)
  residual activity: 87.5%
MYO3B (human)
  residual activity: 74.1%
FER (human)
  residual activity: 72.5%
EPHB1 (human)
  residual activity: 97.5%
GRK6 (human)
  residual activity: 90.8%
ACVR1 (human)
  residual activity: 99.8%
EPHA2 (human)
  residual activity: 105%
CAMK2D (human)
  residual activity: 93.9%
CSNK2A1 (human)
  residual activity: 114%
ULK2 (human)
  residual activity: 105%
EPHA7 (human)
  residual activity: 85.3%
IRAK1 (human)
  residual activity: 111%
NEK4 (human)
  residual activity: 95.1%
PRKD2 (human)
  residual activity: 97.1%
PTK6 (human)
  residual activity: 82.8%
MAPK8 (human)
  residual activity: 106%
LTK (human)
  residual activity: 66.9%
CAMK1 (human)
  residual activity: 98.1%
TAOK1 (human)
  residual activity: 100%
NEK7 (human)
  residual activity: 102%
RPS6KB1 (human)
  residual activity: 85.7%
EPHA1 (human)
  residual activity: 90.8%
BRSK1 (human)
  residual activity: 92.6%
CSNK1G1 (human)
  residual activity: 103%
DDR2 (human)
  residual activity: 98%
DAPK1 (human)
  residual activity: 100%
NEK3 (human)
  residual activity: 101%
CHUK (human)
  residual activity: 102%
MARK2 (human)
  residual activity: 87.6%
SYK (human)
  residual activity: 89.3%
HIPK1 (human)
  residual activity: 97.3%
CDK5 CDK5R1 p25 (human)
  residual activity: 92.7%
PRKCB1 (human)
  residual activity: 103%
NEK6 (human)
  residual activity: 98.1%

## O=C1NC(=O)C(c2cn(CCCn3ccnc3)c3ccccc23)=C1Nc1ccccc1
MAP3K5 (human)
  residual activity: 105%
CAMK1G (human)
  residual activity: 84.6%
STK25 (human)
  residual activity: 63.1%
EPHA3 (human)
  residual activity: 102%
SRMS (human)
  residual activity: 103%
PRKCI (human)
  residual activity: 90.7%
MAPK1 (human)
  residual activity: 94.8%
MST1R (human)
  residual activity: 93.5%
MYO3B (human)
  residual activity: 36%
FER (human)
  residual activity: 56.1%
EPHB1 (human)
  residual activity: 102%
GRK6 (human)
  residual activity: 98.4%
ACVR1 (human)
  residual activity: 94.4%
EPHA2 (human)
  residual activity: 101%
CAMK2D (human)
  residual activity: 85.4%
CSNK2A1 (human)
  residual activity: 100%
ULK2 (human)
  residual activity: 91.7%
EPHA7 (human)
  residual activity: 89.5%
IRAK1 (human)
  residual activity: 118%
NEK4 (human)
  residual activity: 94.9%
PRKD2 (human)
  residual activity: 94.3%
MAPK8 (human)
  residual activity: 99.6%
HIPK2 (human)
  residual activity: 87.6%
LTK (human)
  residual activity: 93.4%
CAMK1 (human)
  residual activity: 106%
TAOK1 (human)
  residual activity: 101%
NEK7 (human)
  residual activity: 102%
RPS6KB1 (human)
  residual activity: 42.7%
EPHA1 (human)
  residual activity: 101%
BRSK1 (human)
  residual activity: 95.3%
CSNK1G1 (human)
  residual activity: 95%
DDR2 (human)
  residual activity: 95.6%
DAPK1 (human)
  residual activity: 99.2%
NEK3 (human)
  residual activity: 99.5%
CHUK (human)
  residual activity: 105%
MARK2 (human)
  residual activity: 97.1%
SYK (human)
  residual activity: 99.9%
HIPK1 (human)
  residual activity: 102%
CDK5 CDK5R1 p25 (human)
  residual activity: 86%
PRKCB1 (human)
  residual activity: 9.78%
NEK6 (human)
  residual activity: 93.6%

## CCN(CC)CCNC(=O)c1c(C)[nH]c(/C=C2\C(=O)Nc3ccc(F)cc32)c1C
MAP3K5 (human)
  residual activity: 100%
STK25 (human)
  residual activity: 76.1%
EPHA3 (human)
  residual activity: 84%
SRMS (human)
  residual activity: 99.6%
PRKCI (human)
  residual activity: 103%
MAPK1 (human)
  residual activity: 98.5%
MST1R (human)
  residual activity: 92%
MYO3B (human)
  residual activity: 54.5%
FER (human)
  residual activity: 31.6%
EPHB1 (human)
  residual activity: 53.6%
GRK6 (human)
  residual activity: 74.7%
ACVR1 (human)
  residual activity: 121%
EPHA2 (human)
  residual activity: 83.6%
CAMK2D (human)
  residual activity: 11.6%
CSNK2A1 (human)
  residual activity: 121%
ULK2 (human)
  residual activity: 40.3%
EPHA7 (human)
  residual activity: 50.8%
IRAK1 (human)
  residual activity: 31.4%
NEK4 (human)
  residual activity: 94.1%
PRKD2 (human)
  residual activity: 21.1%
PTK6 (human)
  residual activity: 84.5%
MAPK8 (human)
  residual activity: 91.8%
HIPK2 (human)
  residual activity: 41.3%
LTK (human)
  residual activity: 34.4%
CAMK1 (human)
  residual activity: 75.2%
TAOK1 (human)
  residual activity: 71.5%
NEK7 (human)
  residual activity: 93.5%
RPS6KB1 (human)
  residual activity: 42.3%
EPHA1 (human)
  residual activity: 95.1%
BRSK1 (human)
  residual activity: 45.1%
DDR2 (human)
  residual activity: 154%
DAPK1 (human)
  residual activity: 66.9%
NEK3 (human)
  residual activity: 91.6%
CHUK (human)
  residual activity: 92.4%
HIPK1 (human)
  residual activity: 71.3%
PRKCB1 (human)
  residual activity: 90.2%
NEK6 (human)
  residual activity: 89%

## CNC(=O)c1cc(Oc2ccc(NC(=O)Nc3ccc(Cl)c(C(F)(F)F)c3)cc2)ccn1
MAP3K5 (human)
  residual activity: 103%
CAMK1G (human)
  residual activity: 107%
STK25 (human)
  residual activity: 104%
EPHA3 (human)
  residual activity: 95.5%
SRMS (human)
  residual activity: 107%
PRKCI (human)
  residual activity: 89.9%
MAPK1 (human)
  residual activity: 101%
MST1R (human)
  residual activity: 97.6%
MYO3B (human)
  residual activity: 85.6%
FER (human)
  residual activity: 101%
EPHB1 (human)
  residual activity: 102%
GRK6 (human)
  residual activity: 107%
ACVR1 (human)
  residual activity: 98.7%
EPHA2 (human)
  residual activity: 83.8%
CAMK2D (human)
  residual activity: 102%
CSNK2A1 (human)
  residual activity: 108%
ULK2 (human)
  residual activity: 106%
EPHA7 (human)
  residual activity: 80.7%
IRAK1 (human)
  residual activity: 101%
NEK4 (human)
  residual activity: 99.5%
PRKD2 (human)
  residual activity: 96.2%
PTK6 (human)
  residual activity: 96.9%
MAPK8 (human)
  residual activity: 92.8%
LTK (human)
  residual activity: 99.9%
CAMK1 (human)
  residual activity: 106%
TAOK1 (human)
  residual activity: 82%
NEK7 (human)
  residual activity: 98.2%
RPS6KB1 (human)
  residual activity: 91.4%
EPHA1 (human)
  residual activity: 87.7%
BRSK1 (human)
  residual activity: 95.8%
CSNK1G1 (human)
  residual activity: 102%
DDR2 (human)
  residual activity: 3.41%
DAPK1 (human)
  residual activity: 101%
NEK3 (human)
  residual activity: 97.2%
CHUK (human)
  residual activity: 99.8%
MARK2 (human)
  residual activity: 94.9%
SYK (human)
  residual activity: 101%
HIPK1 (human)
  residual activity: 99.7%
CDK5 CDK5R1 p25 (human)
  residual activity: 97.2%
PRKCB1 (human)
  residual activity: 95.1%
NEK6 (human)
  residual activity: 105%

## COc1cc2ncnc(Nc3cccc(Cl)c3)c2cc1OC
MAP3K5 (human)
  residual activity: 106%
CAMK1G (human)
  residual activity: 93.6%
STK25 (human)
  residual activity: 101%
EPHA3 (human)
  residual activity: 97.9%
SRMS (human)
  residual activity: 93.8%
PRKCI (human)
  residual activity: 97.5%
MAPK1 (human)
  residual activity: 91.7%
MST1R (human)
  residual activity: 87.8%
MYO3B (human)
  residual activity: 81.2%
FER (human)
  residual activity: 77.1%
EPHB1 (human)
  residual activity: 82.8%
GRK6 (human)
  residual activity: 96.8%
ACVR1 (human)
  residual activity: 108%
EPHA2 (human)
  residual activity: 85.2%
CAMK2D (human)
  residual activity: 96.1%
ULK2 (human)
  residual activity: 103%
EPHA7 (human)
  residual activity: 65%
IRAK1 (human)
  residual activity: 86.6%
NEK4 (human)
  residual activity: 87.5%
PRKD2 (human)
  residual activity: 92.3%
PTK6 (human)
  residual activity: 39%
MAPK8 (human)
  residual activity: 93.8%
HIPK2 (human)
  residual activity: 88.8%
LTK (human)
  residual activity: 60.3%
CAMK1 (human)
  residual activity: 99.2%
TAOK1 (human)
  residual activity: 108%
NEK7 (human)
  residual activity: 99%
RPS6KB1 (human)
  residual activity: 88.5%
EPHA1 (human)
  residual activity: 81.7%
BRSK1 (human)
  residual activity: 93.1%
CSNK1G1 (human)
  residual activity: 99.9%
DDR2 (human)
  residual activity: 99.2%
DAPK1 (human)
  residual activity: 108%
NEK3 (human)
  residual activity: 84.3%
CHUK (human)
  residual activity: 103%
SYK (human)
  residual activity: 86.9%
HIPK1 (human)
  residual activity: 98.7%
CDK5 CDK5R1 p25 (human)
  residual activity: 87.3%
PRKCB1 (human)
  residual activity: 103%
NEK6 (human)
  residual activity: 105%
